Data taken from PubChem BioAssay (NCI).
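Results reflect a 48-hour exposure of cells in 96-well plates to compound at five concentrations. GI50 = concentration required for 50% inhibition of growth. Definition used: TGI = concentration required for complete inhibition of growth.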

Legend:
Assay in all cases: NCI tumour cell line growth inhibition, 48 h
[1] = test system: M14 melanoma
[2] = test system: LOX IMVI melanoma
[3] = test system: KM12 colon
[4] = test system: RXF 393 renal
[5] = test system: K-562 leukemia
[6] = test system: DU-145 prostate
[7] = test system: SF-295 CNS
[8] = test system: U251 CNS
[9] = test system: NCI-H460 lung
[10] = test system: UO-31 renal
[11] = test system: HOP-62 NSCLC
[12] = test system: OVCAR-5 ovarian
[13] = test system: RPMI-8226 leukemia
[14] = test system: SNB-75 CNS
[15] = test system: UACC-257 melanoma
[16] = test system: SNB-19 CNS
[17] = test system: UACC-62 melanoma
[18] = test system: HCT-116 colon
[19] = test system: HCT-15 colon
[20] = test system: SK-MEL-5 melanoma
[21] = test system: NCI/ADR-RES ovarian
[22] = test system: HCC-2998 colon
[23] = test system: SW-620 colon
[24] = test system: HT29 colon
[25] = test system: IGROV1 ovarian
[26] = test system: SN12C renal
[27] = test system: SK-OV-3 ovarian
[28] = test system: MOLT-4 leukemia
[29] = test system: SF-539 CNS
[30] = test system: SF-268 CNS
[31] = test system: TK-10 renal
[32] = test system: PC-3 prostate
[33] = test system: BT-549 breast
[34] = test system: CCRF-CEM leukemia
[35] = test system: OVCAR-4 ovarian
[36] = test system: HS 578T breast
[37] = test system: NCI-H226 lung
[38] = test system: MALME-3M melanoma
[39] = test system: NCI-H522 lung
[40] = test system: HOP-92 NSCLC
[41] = test system: 786-0 renal
[42] = test system: CAKI-1 renal
[43] = test system: T-47D breast
[44] = test system: MCF7 breast
[45] = test system: SR leukemia
[46] = test system: MDA-MB-231 breast
[47] = test system: COLO 205 colon
[48] = test system: OVCAR-8 ovarian
[49] = test system: ACHN renal
[50] = test system: HL-60(TB) leukemia
[51] = test system: A498 renal
[52] = test system: A549 NSCLC
[53] = test system: MDA-MB-435
[54] = test system: EKVX NSCLC
[55] = test system: NCI-H23 lung
[56] = test system: SK-MEL-28 melanoma

## CC(=O)Nc1cccc(-n2cnc3cc(-c4ccc(O)cc4)ccc32)c1
[1]
  GI50: 0.289 µM
  TGI: 77 µM
[2]
  GI50: 0.523 µM
  TGI: 16.3 µM
[3]
  GI50: 5.42 µM
  TGI: 68.2 µM
[4]
  GI50: 0.834 µM
  TGI: 8.27 µM
[5]
  GI50: 0.169 µM
  TGI: > 100 µM
[6]
  GI50: 1.76 µM
  TGI: 23.6 µM
[7]
  GI50: 0.601 µM
  TGI: 11 µM
[8]
  GI50: 0.365 µM
  TGI: 30.2 µM
[9]
  GI50: 0.386 µM
  TGI: 14.6 µM
[10]
  GI50: 0.716 µM
  TGI: 15 µM
[11]
  GI50: 0.82 µM
  TGI: 22.5 µM
[12]
  GI50: 10.6 µM
  TGI: > 100 µM
[13]
  GI50: 0.494 µM
  TGI: 9.23 µM
[14]
  GI50: 0.232 µM
  TGI: 0.929 µM
[15]
  GI50: 0.716 µM
  TGI: 45.5 µM
[16]
  GI50: 0.872 µM
  TGI: > 100 µM
[17]
  GI50: 0.35 µM
  TGI: 17.6 µM
[18]
  GI50: 0.413 µM
  TGI: 27.2 µM
[19]
  GI50: 0.333 µM
  TGI: 18.9 µM
[20]
  GI50: 0.316 µM
  TGI: 15.8 µM
[21]
  GI50: 0.428 µM
  TGI: 11.5 µM
[22]
  GI50: 3.46 µM
  TGI: 49 µM
[23]
  GI50: 0.368 µM
  TGI: 36.5 µM
[24]
  GI50: 3.24 µM
  TGI: 19 µM
[25]
  GI50: 0.696 µM
  TGI: 29.1 µM
[26]
  GI50: 0.546 µM
  TGI: 41.4 µM
[27]
  GI50: 1.16 µM
  TGI: 22.1 µM
[28]
  GI50: 0.428 µM
  TGI: 16.2 µM
[29]
  GI50: 0.371 µM
  TGI: 5.95 µM
[30]
  GI50: 0.982 µM
  TGI: 57.8 µM
[31]
  GI50: 5.95 µM
  TGI: 47.4 µM
[32]
  GI50: 1.43 µM
  TGI: 42.1 µM
[33]
  GI50: 0.342 µM
  TGI: 11.2 µM
[34]
  GI50: 0.515 µM
  TGI: 68.2 µM
[35]
  GI50: 2.42 µM
  TGI: 43.1 µM
[36]
  GI50: 0.254 µM
  TGI: 2.46 µM
[37]
  GI50: 0.779 µM
  TGI: 4.26 µM
[38]
  GI50: 0.583 µM
  TGI: 49.8 µM
[39]
  GI50: 0.176 µM
  TGI: 0.503 µM
[40]
  GI50: 0.94 µM
  TGI: 28.8 µM
[41]
  GI50: 0.78 µM
  TGI: 23.2 µM
[42]
  GI50: 0.668 µM
  TGI: 14 µM
[43]
  GI50: 0.534 µM
  TGI: 19.6 µM
[44]
  GI50: 0.377 µM
  TGI: 22.6 µM
[45]
  GI50: 0.182 µM
  TGI: > 100 µM
[46]
  GI50: 0.46 µM
  TGI: > 100 µM
[47]
  GI50: 3.86 µM
  TGI: 40.1 µM
[48]
  GI50: 0.618 µM
  TGI: 17 µM
[49]
  GI50: 0.894 µM
  TGI: 16.8 µM
[50]
  GI50: 0.313 µM
  TGI: 10.6 µM
[51]
  GI50: 0.249 µM
  TGI: 0.982 µM
[52]
  GI50: 0.73 µM
  TGI: 80.9 µM

## O=C(N/N=C\c1ccc(F)cc1)c1ccc2nc(-c3ccc(Br)cc3)[nH]c2c1
[1]
  GI50: 2.08 µM
  TGI: 4.52 µM
[2]
  GI50: 1.74 µM
  TGI: 3.54 µM
[3]
  GI50: 3.2 µM
  TGI: 15.1 µM
[53]
  GI50: 1.96 µM
  TGI: 4.12 µM
[54]
  GI50: 2.09 µM
  TGI: 4.8 µM
[4]
  GI50: 1.74 µM
  TGI: 3.53 µM
[5]
  GI50: 2.73 µM
  TGI: 8.09 µM
[6]
  GI50: 2.07 µM
  TGI: 4.97 µM
[7]
  GI50: 2.18 µM
  TGI: 5.24 µM
[55]
  GI50: 1.88 µM
  TGI: 3.67 µM
[8]
  GI50: 1.91 µM
  TGI: 3.38 µM
[9]
  GI50: 1.72 µM
  TGI: 3.27 µM
[10]
  GI50: 1.6 µM
  TGI: 3.31 µM
[11]
  GI50: 1.86 µM
  TGI: 3.72 µM
[12]
  GI50: 2.28 µM
  TGI: 5.73 µM
[13]
  GI50: 2.97 µM
  TGI: 9.39 µM
[14]
  GI50: 1.87 µM
  TGI: 4.41 µM
[15]
  GI50: 2.03 µM
  TGI: 4.48 µM
[16]
  GI50: 2.27 µM
  TGI: 4.96 µM
[17]
  GI50: 2.69 µM
  TGI: 8.76 µM
[18]
  GI50: 1.87 µM
  TGI: 3.95 µM
[19]
  GI50: 2.19 µM
  TGI: 5.08 µM
[20]
  GI50: 3.25 µM
  TGI: 13.4 µM
[21]
  GI50: 7.97 µM
  TGI: > 100 µM
[22]
  GI50: 2.28 µM
  TGI: 5.48 µM
[23]
  GI50: 1.9 µM
  TGI: 3.76 µM
[24]
  GI50: 1.85 µM
  TGI: 3.47 µM
[25]
  GI50: 1.88 µM
  TGI: 3.89 µM
[26]
  GI50: 1.78 µM
  TGI: 3.63 µM
[27]
  GI50: 2.09 µM
  TGI: 5.17 µM
[28]
  GI50: 2.17 µM
  TGI: 5.62 µM
[29]
  GI50: 1.74 µM
  TGI: 3.42 µM
[30]
  GI50: 3.26 µM
  TGI: 13 µM
[31]
  GI50: 2.59 µM
  TGI: 5.48 µM
[32]
  GI50: 1.79 µM
  TGI: 3.4 µM
[33]
  GI50: 2.34 µM
  TGI: 6.08 µM
[34]
  GI50: 3.5 µM
  TGI: 32.1 µM
[35]
  GI50: 2.51 µM
  TGI: 7.13 µM
[36]
  GI50: 2.04 µM
  TGI: 5.39 µM
[37]
  GI50: 2.62 µM
  TGI: 16.6 µM
[38]
  GI50: 1.65 µM
  TGI: 3.43 µM
[39]
  GI50: 1.78 µM
  TGI: 3.96 µM
[40]
  GI50: 2.13 µM
  TGI: 4.54 µM
[41]
  GI50: 2.03 µM
  TGI: 3.88 µM
[42]
  GI50: 2.2 µM
  TGI: 5.41 µM
[43]
  GI50: 1.78 µM
  TGI: 3.92 µM
[44]
  GI50: 1.7 µM
  TGI: 3.88 µM
[45]
  GI50: 2.75 µM
  TGI: 8.79 µM
[46]
  GI50: 1.93 µM
  TGI: 4.49 µM
[56]
  GI50: 1.86 µM
  TGI: 3.8 µM
[47]
  GI50: 1.91 µM
  TGI: 4.43 µM
[48]
  GI50: 1.98 µM
  TGI: 4.14 µM
[49]
  GI50: 1.81 µM
  TGI: 3.69 µM
[50]
  GI50: 14.6 µM
  TGI: > 100 µM
[51]
  GI50: 1.94 µM
  TGI: 5.31 µM
[52]
  GI50: 1.9 µM
  TGI: 3.7 µM
